# In ChEMBL document CHEMBL1759888, “Biological evaluation of polyhalo 1,3-diazaheterocycle fused isoquinolin-1(2H)-imine derivatives” (Eur J Med Chem, 2011):
# System: SK-OV-3
# Assay: Anticancer activity against human SKOV3 cells after 72 hrs by MTT assay
# Settings: SK-OV-3, 72 h
row,Structure (SMILES),IC50 [µg/mL]
1,N#Cc1c(F)c(F)c2c(C(=O)c3ccc(Cl)cc3)c3n(c(=N)c2c1F)CCN3,34.5
2,Cc1ccc(C(=O)c2c3n(c(=N)c4c(F)c(C#N)c(F)c(Cl)c24)CCCN3)cc1,76.4
3,N#Cc1c(Cl)c(Cl)c2c(C(=O)c3ccccc3)c3n(c(=N)c2c1Cl)CCCN3,51.2
4,CCOC(=O)c1c2n(c(=N)c3c(Cl)c(C#N)c(Cl)c(Cl)c13)CCN2,50.1
5,N#Cc1c(Cl)c(Cl)c2c(C(=O)c3ccc(Cl)cc3)c3n(c(=N)c2c1Cl)CCCN3,52.2
6,COc1ccc(C(=O)c2c3n(c(=N)c4c(F)c(C#N)c(F)c(Cl)c24)CCCN3)cc1,26.8
7,CC(=O)c1c2n(c(=N)c3c(F)c(C#N)c(F)c(Cl)c13)CCN2,6.2
8,COc1ccc(C(=O)c2c3n(c(=N)c4c(Cl)c(C#N)c(Cl)c(Cl)c24)CCO3)cc1,32.2

# System: HL-60
# Assay: Anticancer activity against human HL60 cells after 48 hrs by MTT assay
# Settings: HL-60, 48 h
row,Structure (SMILES),IC50 [µg/mL]
1,N#Cc1c(F)c(F)c2c(C(=O)c3ccc(Cl)cc3)c3n(c(=N)c2c1F)CCN3,0.5
2,Cc1ccc(C(=O)c2c3n(c(=N)c4c(F)c(C#N)c(F)c(Cl)c24)CCCN3)cc1,14.6
3,N#Cc1c(Cl)c(Cl)c2c(C(=O)c3ccccc3)c3n(c(=N)c2c1Cl)CCCN3,10.7
4,CCOC(=O)c1c2n(c(=N)c3c(Cl)c(C#N)c(Cl)c(Cl)c13)CCN2,1.7
5,N#Cc1c(Cl)c(Cl)c2c(C(=O)c3ccc(Cl)cc3)c3n(c(=N)c2c1Cl)CCCN3,4.4
6,COc1ccc(C(=O)c2c3n(c(=N)c4c(F)c(C#N)c(F)c(Cl)c24)CCCN3)cc1,0.5
7,CC(=O)c1c2n(c(=N)c3c(F)c(C#N)c(F)c(Cl)c13)CCN2,0.9
8,COc1ccc(C(=O)c2c3n(c(=N)c4c(Cl)c(C#N)c(Cl)c(Cl)c24)CCO3)cc1,24.2

# System: K562
# Assay: Anticancer activity against human K562 cells after 48 hrs by MTT assay
# Settings: K562, 48 h
row,Structure (SMILES),IC50 [µg/mL]
1,N#Cc1c(F)c(F)c2c(C(=O)c3ccc(Cl)cc3)c3n(c(=N)c2c1F)CCN3,1
2,Cc1ccc(C(=O)c2c3n(c(=N)c4c(F)c(C#N)c(F)c(Cl)c24)CCCN3)cc1,2.3
3,N#Cc1c(Cl)c(Cl)c2c(C(=O)c3ccccc3)c3n(c(=N)c2c1Cl)CCCN3,1.2
4,CCOC(=O)c1c2n(c(=N)c3c(Cl)c(C#N)c(Cl)c(Cl)c13)CCN2,1.6
5,N#Cc1c(Cl)c(Cl)c2c(C(=O)c3ccc(Cl)cc3)c3n(c(=N)c2c1Cl)CCCN3,1.2
6,COc1ccc(C(=O)c2c3n(c(=N)c4c(F)c(C#N)c(F)c(Cl)c24)CCCN3)cc1,0.07
7,CC(=O)c1c2n(c(=N)c3c(F)c(C#N)c(F)c(Cl)c13)CCN2,0.4
8,COc1ccc(C(=O)c2c3n(c(=N)c4c(Cl)c(C#N)c(Cl)c(Cl)c24)CCO3)cc1,0.8

# System: HepG2
# Assay: Anticancer activity against human HepG2 cells after 72 hrs by MTT assay
# Settings: HepG2, 72 h
row,Structure (SMILES),IC50 [µg/mL]
1,N#Cc1c(F)c(F)c2c(C(=O)c3ccc(Cl)cc3)c3n(c(=N)c2c1F)CCN3,17.7
2,Cc1ccc(C(=O)c2c3n(c(=N)c4c(F)c(C#N)c(F)c(Cl)c24)CCCN3)cc1,24.6
3,N#Cc1c(Cl)c(Cl)c2c(C(=O)c3ccccc3)c3n(c(=N)c2c1Cl)CCCN3,9.3
4,CCOC(=O)c1c2n(c(=N)c3c(Cl)c(C#N)c(Cl)c(Cl)c13)CCN2,38.2
5,N#Cc1c(Cl)c(Cl)c2c(C(=O)c3ccc(Cl)cc3)c3n(c(=N)c2c1Cl)CCCN3,30
6,COc1ccc(C(=O)c2c3n(c(=N)c4c(F)c(C#N)c(F)c(Cl)c24)CCCN3)cc1,0.8
7,CC(=O)c1c2n(c(=N)c3c(F)c(C#N)c(F)c(Cl)c13)CCN2,6.4
8,COc1ccc(C(=O)c2c3n(c(=N)c4c(Cl)c(C#N)c(Cl)c(Cl)c24)CCO3)cc1,2.7

# System: not listed separately
# Assay: Lipophilicity, log P of the compound
# Assay type: physicochemical
# Settings: octanol/water
row,Structure (SMILES),logP
1,N#Cc1c(F)c(F)c2c(C(=O)c3ccc(Cl)cc3)c3n(c(=N)c2c1F)CCN3,3.36
2,Cc1ccc(C(=O)c2c3n(c(=N)c4c(F)c(C#N)c(F)c(Cl)c24)CCCN3)cc1,3.85
3,N#Cc1c(Cl)c(Cl)c2c(C(=O)c3ccccc3)c3n(c(=N)c2c1Cl)CCCN3,4.11
4,CCOC(=O)c1c2n(c(=N)c3c(Cl)c(C#N)c(Cl)c(Cl)c13)CCN2,3.44
5,N#Cc1c(Cl)c(Cl)c2c(C(=O)c3ccc(Cl)cc3)c3n(c(=N)c2c1Cl)CCCN3,4.84
6,COc1ccc(C(=O)c2c3n(c(=N)c4c(F)c(C#N)c(F)c(Cl)c24)CCCN3)cc1,3.34
7,CC(=O)c1c2n(c(=N)c3c(F)c(C#N)c(F)c(Cl)c13)CCN2,1.67
8,COc1ccc(C(=O)c2c3n(c(=N)c4c(Cl)c(C#N)c(Cl)c(Cl)c24)CCO3)cc1,3.39

# System: A-431
# Assay: Anticancer activity against human A431 cells after 72 hrs by MTT assay
# Settings: A-431, 72 h
row,Structure (SMILES),IC50 [µg/mL]
1,N#Cc1c(F)c(F)c2c(C(=O)c3ccc(Cl)cc3)c3n(c(=N)c2c1F)CCN3,4.9
2,Cc1ccc(C(=O)c2c3n(c(=N)c4c(F)c(C#N)c(F)c(Cl)c24)CCCN3)cc1,27.5
3,N#Cc1c(Cl)c(Cl)c2c(C(=O)c3ccccc3)c3n(c(=N)c2c1Cl)CCCN3,10.1
4,CCOC(=O)c1c2n(c(=N)c3c(Cl)c(C#N)c(Cl)c(Cl)c13)CCN2,40.6
5,N#Cc1c(Cl)c(Cl)c2c(C(=O)c3ccc(Cl)cc3)c3n(c(=N)c2c1Cl)CCCN3,8
6,COc1ccc(C(=O)c2c3n(c(=N)c4c(F)c(C#N)c(F)c(Cl)c24)CCCN3)cc1,2
7,CC(=O)c1c2n(c(=N)c3c(F)c(C#N)c(F)c(Cl)c13)CCN2,20.4
8,COc1ccc(C(=O)c2c3n(c(=N)c4c(Cl)c(C#N)c(Cl)c(Cl)c24)CCO3)cc1,11
